Like-named read-outs stand apart in the source and are kept apart here. Bridge positions count the residues as written; N and C are the ends. Square brackets hold non-standard residues; d marks the D form. Peptide text beside a SMILES is read from it. R8 = C=CCCCCCC[C@@](C)(N)C(=O)O; Cba = N[C@@H](CC1CCC1)C(=O)O; S5 = C=CCCC[C@](C)(N)C(=O)O
Columns and labels:
human Mdm2 1–125 = biological target: T1, human Mdm2 1–125 (Homo sapiens, UniProt Q00987); experiment: Mdm2 binding assay (competitive fluorescence anisotropy/polarization); details: competitive fluorescence polarization, read-out: Mdm2 (nM), Mdm2 binding (Kd)
T1 construct: GST (N); His6 (internal); TEV cleavage site ENLYFQG (internal); made in house; host or cells: Escherichia coli BL21 (DE3) Rosetta T1R
T1 sequence (Q00987 with tags, fused parts or gaps): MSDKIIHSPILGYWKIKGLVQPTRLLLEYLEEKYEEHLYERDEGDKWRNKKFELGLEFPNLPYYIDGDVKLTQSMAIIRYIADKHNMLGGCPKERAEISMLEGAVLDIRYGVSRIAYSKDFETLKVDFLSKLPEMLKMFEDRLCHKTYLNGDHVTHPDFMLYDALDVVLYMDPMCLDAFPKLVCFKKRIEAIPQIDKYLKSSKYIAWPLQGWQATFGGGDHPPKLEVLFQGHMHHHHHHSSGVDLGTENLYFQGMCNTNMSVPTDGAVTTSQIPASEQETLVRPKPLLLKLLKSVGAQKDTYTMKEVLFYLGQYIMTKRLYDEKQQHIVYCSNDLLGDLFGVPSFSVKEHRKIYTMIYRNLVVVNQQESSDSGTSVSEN

[1] = system: p53 responsive β-lactamase reporter in HCT116 cells; experiment: p53 beta-lactamase reporter gene cellular functional assay; assay type: cell-based
How it was run: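 HCT116 cells stably carrying a p53-responsive β-lactamase reporter seeded 8000/well overnight, then switched to Opti-MEM with 0% or 10% FBS for compound treatment at 0.5% DMSO final. β-Lactamase activity measured with ToxBLAzer Dual Screen on a multiplate reader.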

[2] = Circular dichroism (CD) α-helicity; assay type: physicochemical; details: for Helicity (%): CD of free peptide, 25 °C, 1 mM Hepes pH 7.4, 5% methanol
How it was run: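 Peptide dried from methanol, reconstituted to 1 mM in 1 mM Hepes pH 7.4 with 5% methanol; concentration by A280. CD spectra 300–190 nm, 0.2 cm path, 25 °C, duplicates; converted to mean residue ellipticity and deconvoluted for secondary structure.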

[3] = Whole cell homogenate stability; assay type: in vitro ADME; details: 1 μM peptide, 37 °C, up to 22 h
Method: Peptides at a concentration of 1 μM were incubated at 37 °C with HCT116 whole cell homogenates prepared from 1 million lysed cells/mL. The reaction was stopped at 0, 1, 2, 4, and 22 h with an organic solvent followed by centrifugation. The resulting supernatant was injected into LC/MS for detection of the tested peptide. The remaining percentage of each compound was normalized to the 0 h amount and reported. As a positive control, we used the ONEG peptide with the sequence […] [28].

[4] = Lactate dehydrogenase (LDH) release assay; assay type: cell-based; details: membrane integrity, HCT116
Method: HCT116 cells were seeded into a 384-well plate at a density of 8000 cells per well. Cells were maintained in McCoy’s 5A Medium with 10% fetal bovine serum (FBS), Blasticidin, and Penicillin/Streptomycin. The cells were incubated overnight, followed by the removal of cell media and the addition of Opti-MEM Medium without FBS. Cells were then treated with peptides for 4 or 16 h in Opti-MEM, either in 10% FBS or in serum free conditions. The final concentration of DMSO was 0.5%. Lactate dehydrogenase release was detected using the CytoTox-ONE Homogenous Membrane Integrity Assay Kit (Promega), as per the manufacturer’s instructions. Measurements were carried out using the Tecan plate reader. Maximum LDH release was defined as the amount of LDH released as induced by the lytic peptide (iDNA79) and used to normalize the results.

[5] = biological target: T2, recombinant human Mdm2 protein (amino acids 1–125) (Homo sapiens, UniProt Q00987); experiment: Isothermal titration calorimetry (ITC); assay type: binding; details: Figure 2A middle panel
T2 construct: purified recombinant human Mdm2 protein (amino acids 1–125); made in house
T2 sequence (Q00987 1-125): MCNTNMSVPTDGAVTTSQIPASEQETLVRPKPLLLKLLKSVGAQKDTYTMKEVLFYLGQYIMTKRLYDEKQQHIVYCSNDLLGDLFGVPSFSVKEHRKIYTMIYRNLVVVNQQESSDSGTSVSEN
Method: Overnight dialysis of protein and peptides were carried out in buffer containing 1× phosphate-buffered saline (PBS) pH 7.2, 3% DMSO, and 0.001% Tween-20. […] Reverse ITC (200 µM of Mdm2 protein titrated into 20 µM of peptide) was carried out for peptides that are insoluble at high concentrations. All experiments were performed in duplicates using the MicroCal PEAQ-ITC Automated system. Data analysis was carried out using the MicroCal PEAQ-ITC Analysis Software.

biotinylated Mdm2 = biological target: T3, biotinylated Mdm2 (Homo sapiens, UniProt Q00987); experiment: Surface plasmon resonance (SPR); assay type: binding; details: Figure 2A right panel, 25 °C
T3 construct: made in house
T3 sequence (Q00987 whole entry): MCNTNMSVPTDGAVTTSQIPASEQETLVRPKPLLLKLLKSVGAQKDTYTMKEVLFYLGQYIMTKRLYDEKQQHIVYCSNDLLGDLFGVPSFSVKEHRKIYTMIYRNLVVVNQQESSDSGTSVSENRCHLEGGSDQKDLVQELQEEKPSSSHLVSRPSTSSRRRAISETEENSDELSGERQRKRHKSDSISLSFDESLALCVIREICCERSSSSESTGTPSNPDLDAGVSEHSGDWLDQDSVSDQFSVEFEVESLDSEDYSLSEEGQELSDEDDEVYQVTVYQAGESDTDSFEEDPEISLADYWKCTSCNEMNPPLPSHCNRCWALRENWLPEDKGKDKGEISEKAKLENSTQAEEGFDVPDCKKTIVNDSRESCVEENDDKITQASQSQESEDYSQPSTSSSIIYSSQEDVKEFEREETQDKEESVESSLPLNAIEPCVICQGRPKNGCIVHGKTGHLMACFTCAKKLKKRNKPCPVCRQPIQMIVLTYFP
Method: SPR experiments were performed with Biacore T100 (GE Healthcare) at 25 °C. […] The SPR buffer consisted of 50 mM Tris pH 7.4, 150 mM NaCl, 1 mM DTT, 0.05% Tween 20, and 3% DMSO. The CM5 chip was first conditioned with 100 mM HCl, followed by 0.1% SDS, 50 mM NaOH, and then water, all performed twice with 6 sec injection at a flow rate of 100 µL/min. With the flow rate set to 10 µL/min, streptavidin (S4762, Sigma-Aldrich) was immobilized on the conditioned chip through amine coupling, as described in the Biacore manual. Excess protein was removed by 30 s injection of the wash solution (50 mM NaOH + 1 M NaCl) at least eight times. The immobilized level was ~3000 RU. The biotinylated Mdm2 was captured by streptavidin, up to a level of ~400 RU. A flow cell consisting of only streptavidin was used as the reference surface. Using a flow rate of 30 µL/min, peptides dissolved in the SPR buffer were injected for 180 s. The dissociation was monitored for 300 s. […] After the run, responses from the target protein surface were transformed by: (i) correcting with the DMSO calibration curve, (ii) subtracting the responses obtained from the reference surface, and (iii) subtracting the responses of the buffer injections from those of peptide injections. The last step is known as double referencing, which corrects the systematic artefacts. […]

[6] = Table 1, p53 reporter assay, HCT116, read-out: Cellular (µM), cellular activity (EC50)

SMILES | Kd (human Mdm2 1–125; Table 1) [nM] | EC50 [1, 6] [µM] | Helicity (%) ([2]; Table 1) | stability in whole cell homogenate [3] | other results
CC(=O)N[C@@H](CC(C)C)C(=O)N[C@H](C(=O)N[C@@H](Cc1ccccc1)C(=O)NC(C)(C)C(=O)N[C@H](CCC(=O)O)C(=O)N[C@@H](Cc1ccc(O)cc1)C(=O)N[C@@H](Cc1c[nH]c2ccccc12)C(=O)N[C@@H](CCC(N)=O)C(=O)N[C@@H](CC(C)C)C(=O)N[C@@H](CC1CCC1)C(=O)NC(C)(C)C(=O)N[C@@H](CO)C(=O)N[C@@H](C)C(=O)N[C@@H](C)C(N)=O)[C@@H](C)O [Linear E5(D-Glu)] | 135 | > 50 | 21.4 | decreased stability | 
CC(=O)N[C@@H](CC(C)C)C(=O)N[C@H](C(=O)N[C@@H](Cc1ccccc1)C(=O)NC(C)(C)C(=O)N[C@@H](CCC(=O)O)C(=O)N[C@@H](Cc1ccc(O)cc1)C(=O)N[C@@H](Cc1c[nH]c2ccccc12)C(=O)N[C@@H](CCC(N)=O)C(=O)N[C@@H](CC(C)C)C(=O)N[C@@H](CC1CCC1)C(=O)NC(C)(C)C(=O)N[C@@H](CO)C(=O)N[C@@H](C)C(=O)N[C@@H](C)C(N)=O)[C@@H](C)O [Linear Parent (MP-189), Ac–Leu–Thr–Phe–Aib–Glu–Tyr–Trp–Gln–Leu–Cba–Aib–Ser–Ala–Ala–NH2] | 43.1 | 33.5 | 35.3 | moderate stabilities | 
CC(=O)N[C@@H](CC(C)C)C(=O)N[C@H](C(=O)N[C@@H](Cc1ccccc1)C(=O)N[C@]1(C)CCCCCCC=CCCC[C@@](C)(C(=O)N[C@@H](CO)C(=O)N[C@@H](C)C(=O)N[C@@H](C)C(N)=O)NC(=O)[C@H](CC2CCC2)NC(=O)[C@H](CC(C)C)NC(=O)[C@H](CCC(N)=O)NC(=O)[C@H](Cc2c[nH]c3ccccc23)NC(=O)[C@H](Cc2ccc(O)cc2)NC(=O)[C@H](CCC(=O)O)NC1=O)[C@@H](C)O [MP-292] | 18.6 | 0.54 | 32.8 | minimal degradation | EC50 ([1]; 0% serum, read-out: p53 reporter assay EC50): 0.5 µM; EC50 ([1]; 2% serum, read-out: p53 reporter assay EC50): 0.7 µM; EC50 ([1]; 10% serum, read-out: p53 reporter assay EC50): 4.2 µM; EC50 [4]: > 50 µM; Kd [5]: < 20 nM; Kd (biotinylated Mdm2): 1.4 nM
CC(=O)N[C@@H](CC(C)C)C(=O)N[C@H](C(=O)N[C@@H](Cc1ccccc1)C(=O)N[C@]1(C)CCCCCCC=CCCC[C@@](C)(C(=O)N[C@@H](CO)C(=O)N[C@@H](C)C(=O)N[C@@H](C)C(N)=O)NC(=O)[C@H](CC2CCC2)NC(=O)[C@H](CC(C)C)NC(=O)[C@H](CCC(N)=O)NC(=O)[C@H](Cc2c[nH]c3ccccc23)NC(=O)[C@H](C)NC(=O)[C@H](CCC(=O)O)NC1=O)[C@@H](C)O [Peptide Y6A] (Ac-LTF[R8]EAWQL[Cba][S5]SAA-NH2; staple 4-11) | 38.9 | 0.55 | 50.3 |  | 
CC(=O)N[C@@H](CC(C)C)C(=O)N[C@H](C(=O)N[C@@H](Cc1ccccc1)C(=O)N[C@]1(C)CCCCCCC=CCCC[C@@](C)(C(=O)N[C@@H](CO)C(=O)N[C@@H](C)C(=O)N[C@@H](C)C(N)=O)NC(=O)[C@H](CC2CCC2)NC(=O)[C@H](CC(C)C)NC(=O)[C@@H](CCC(N)=O)NC(=O)[C@H](Cc2c[nH]c3ccccc23)NC(=O)[C@H](Cc2ccc(O)cc2)NC(=O)[C@H](CCC(=O)O)NC1=O)[C@@H](C)O [Q8(D-Gln)] | 22 | 2.1 | 27.1 |  | 
CC(=O)N[C@@H](CCCCN=[N+]=[N-])C(=O)NCCC(=O)N[C@@H](CC(C)C)C(=O)N[C@H](C(=O)N[C@@H](Cc1ccccc1)C(=O)N[C@]1(C)CCCCCCC=CCCC[C@@](C)(C(=O)N[C@@H](CO)C(=O)N[C@@H](C)C(=O)N[C@@H](C)C(N)=O)NC(=O)[C@H](CC2CCC2)NC(=O)[C@H](CCC(N)=O)N(C)C(=O)[C@H](C)NC(=O)[C@H](Cc2c[nH]c3ccccc23)NC(=O)[C@H](Cc2ccc(O)cc2)NC(=O)[C@H](CCC(=O)O)NC1=O)[C@@H](C)O [Q9(N-methyl L-Gln)] |  |  |  |  | Kd (human Mdm2 1–125; Table 2): 211 nM; EC50 ([1]; Table 2, p53 reporter assay, HCT116, read-out: Cellular (µM), cellular activity (EC50)): > 50 µM; α-helicity by CD [2]: < 30%; Helicity (%) ([2]; Table 2): 20.2%
CC(=O)N[C@@H](CC(C)C)C(=O)N[C@H](C(=O)N[C@@H](Cc1ccccc1)C(=O)N[C@]1(C)CCCCCCC=CCCC[C@@](C)(C(=O)N[C@H](CO)C(=O)N[C@@H](C)C(=O)N[C@@H](C)C(N)=O)NC(=O)[C@H](CC2CCC2)NC(=O)[C@H](CC(C)C)NC(=O)[C@H](CCC(N)=O)NC(=O)[C@H](Cc2c[nH]c3ccccc23)NC(=O)[C@H](Cc2ccc(O)cc2)NC(=O)[C@H](CCC(=O)O)NC1=O)[C@@H](C)O [S12(D-Ser)] | 8.6 | 1.2 | 41.2 |  | 
CC(=O)N[C@@H](CC(C)C)C(=O)N[C@@H](C(=O)N[C@@H](Cc1ccccc1)C(=O)N[C@]1(C)CCCCCCC=CCCC[C@@](C)(C(=O)N[C@@H](CO)C(=O)N[C@@H](C)C(=O)N[C@@H](C)C(N)=O)NC(=O)[C@H](CC2CCC2)NC(=O)[C@H](CC(C)C)NC(=O)[C@H](CCC(N)=O)NC(=O)[C@H](Cc2c[nH]c3ccccc23)NC(=O)[C@H](Cc2ccc(O)cc2)NC(=O)[C@H](CCC(=O)O)NC1=O)[C@H](C)O [T2(D-Thr)] | 136 | 3.4 | 40.7 |  | 
CC(=O)N[C@@H](CC(C)C)C(=O)N[C@H](C(=O)N[C@@H](Cc1ccccc1)C(=O)N[C@]1(C)CCCCCCC=CCCC[C@@](C)(C(=O)N[C@@H](CO)C(=O)N[C@@H](C)C(=O)N[C@@H](C)C(N)=O)NC(=O)[C@H](CC2CCC2)NC(=O)[C@H](CC(C)C)NC(=O)[C@H](CCC(N)=O)NC(=O)[C@@H](Cc2c[nH]c3ccccc23)NC(=O)[C@H](Cc2ccc(O)cc2)NC(=O)[C@H](CCC(=O)O)NC1=O)[C@@H](C)O [W6(D-Trp) (MP-384)] | 30 | 0.6 | 41.0 |  | 
CC(=O)N[C@@H](CC(C)C)C(=O)N[C@H](C(=O)N[C@@H](Cc1ccccc1)C(=O)N[C@]1(C)CCCCCCC=CCCC[C@@](C)(C(=O)N[C@@H](CO)C(=O)N[C@@H](C)C(=O)N[C@@H](C)C(N)=O)NC(=O)[C@H](CC2CCC2)NC(=O)[C@H](CC(C)C)NC(=O)[C@H](CCC(N)=O)NC(=O)[C@H](Cc2c[nH]c3ccccc23)NC(=O)[C@@H](Cc2ccc(O)cc2)NC(=O)[C@H](CCC(=O)O)NC1=O)[C@@H](C)O [Y6 (D-Tyr)] | 286 | 3.2 | 43.2 |  | 
